Data published in the METLIN SMRT retention time set (Domingo-Almenara et al. 2019).

Assay: gradient 5% acetonitrile 3 min, to 50% in 2 min, to 85% in 15 min, held 3 min, 100 µL/min
Details: column: Zorbax Extend-C18 2.1 x 50 mm; eluents: water / acetonitrile, 0.1% formic acid
Summary of the method: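 In both positive and negative ionization mode, a quadrupole time-of-flight mass spectrometer coupled to HPLC analyzed pure standards run in mixtures of ~100 molecules. The Zorbax Extend-C18 column (2.1 × 50 mm, 1.8 μm) was operated at 100 μL/min with water and acetonitrile, each containing 0.1% formic acid. The dead volume was 40 μL and the dwell volume 900 μL. Retention time came from adduct peaks that were computationally picked and individually inspected by hand.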

Row | Structure (SMILES) | RP-LC retention time
1 | O=c1c2c(CO)c(-c3ccccc3)nn2ccn1Cc1cccc(C(F)(F)F)c1 | 996 s
2 | O=C(O)[C@H]1O[C@H](Oc2cc3oc(-c4ccccc4)cc(=O)c3c(O)c2O)[C@H](O)[C@@H](O)[C@@H]1O | 658 s
3 | CCOC(=O)N1CCN(c2cc(C(=O)O)c3cc(NC(=O)Cc4ccc(OC)cc4)ccc3n2)CC1 | 634 s
4 | O=C(Nc1nnc(C2CC(=O)N(c3ccc(Cl)cc3)C2)o1)c1ccc(C(F)(F)F)cc1 (stereo not given) | 884 s
5 | Cc1oc(C)c(S(=O)(=O)NC2CC2)c1C(=O)NCc1ccc2c(c1)OCO2 | 830 s
6 | C=Cc1ccc(CN2C(=O)CCC2c2nc(C)no2)cc1 (stereo not given) | 731 s
7 | CC(=O)N1CCc2cc(N3CC(C(=O)Nc4ccc(C(F)(F)F)cc4)CC3=O)ccc21 (stereo not given) | 798 s
8 | CCCCOC(=O)COc1cc(O)c2c(=O)cc(-c3ccccc3)oc2c1 | 1230 s
9 | CC(C)C(=O)Nc1ccc(C2(C(=O)NCc3ccccn3)CCC2)cc1 | 611 s
10 | Cc1cc(NC(=O)c2sc(NCc3ccco3)nc2C)ccc1Cl | 956 s
11 | COc1ccc(-c2c(C)noc2NC(C)=O)cc1S(=O)(=O)Nc1ccc(Br)cc1F | 817 s
12 | COc1cc(NC(=O)CN2C(=O)CC(c3ccccc3)=Nc3ccccc32)cc(OC)c1 | 973 s
13 | CCOC(=O)c1ccccc1NC(=O)CSc1nnc(NC(=O)C(C)(C)C)s1 | 929 s
14 | Cc1csc(-c2ccc(N3CCN(C(=O)Cc4ccc(Cl)cc4)CC3)nc2)n1 | 902 s
15 | Cc1ccccc1NC(=O)Nc1c(-c2ccc(F)cc2)nc2ccccn12 | 661 s
16 | CCC(CC)C(=O)Nc1ccc(-c2nc(-c3ccc(Cl)cc3)no2)cc1 | 639 s
17 | O=C(Cn1nc2c(Sc3cccc(F)c3)nccn2c1=O)N1CCN(c2ccccc2)CC1 | 914 s
18 | CC(C)COc1cc(=O)n2c(c1C(=O)NCCCN1CCOCC1)CCCCC2 | 570 s
19 | CCCN1CCN(C(=O)CCc2c(C)c(C(=O)OCC)c(C)n2CC)CC1 | 645 s
20 | O=C1CCCN1CCCN(CC(=O)N1CCNCC1)C(=O)c1cccc(Cl)c1 | 586 s
21 | CC(C)c1noc(C2CCCN(C(=O)NC(C)(C)C)CCC(=O)NCC2)n1 (stereo not given) | 690 s
22 | O=C(CSc1nccc(N2CCCC2)n1)N1CCN(c2ccccc2F)CC1 | 677 s
23 | CCC1=NS(=O)(=O)c2cccnc2N1c1ccc(OC)cc1 | 819 s

More lines, now with the values ahead:

Row | RP-LC retention time | Structure (SMILES)
24 | 1090 s | Cc1nn(-c2ccc(-c3ccccc3)nn2)c(C)c1S(=O)(=O)N1CCCCC1
25 | 610 s | COc1cccc(-c2cc(C(=O)N3CCN(c4ccc(N5CCOCC5)nn4)CC3)[nH]n2)c1
26 | 814 s | O=C(NCc1csc(-c2ccccc2)n1)C1CCN(C(=O)c2ccc(F)c(F)c2)CC1
27 | 855 s | Cc1cc(NC2CCCC2)n2nc(-c3ccc(Cl)cc3)c(C)c2n1
28 | 762 s | Cc1ccc(N2CC(C(=O)Nc3ccc4c(c3)C(=O)N3CCCCC3CCO4)CC2=O)cc1 (stereo not given)
29 | 1000 s | CCC(=O)N1CCc2sc(S(=O)(=O)N3CCN(c4ccc(C)cc4)CC3)cc2C1
30 | 813 s | CN1c2cc(C(=O)NCc3ccc(F)cc3F)ccc2C(=O)N2CCCCC21 (stereo not given)
31 | 819 s | Cc1noc(-c2cc(=O)n(CC(=O)NC3CCCCC3)c3ccccc23)n1
32 | 887 s | O=C(CCC1CCCC1)NCCC1CCN(C(=O)Nc2ccc(F)cc2)CC1
33 | 910 s | CC1CCN(S(=O)(=O)c2ccc(-c3nnc(C(=O)NCc4cccs4)o3)cc2)CC1
34 | 555 s | Cc1cc(=O)n(CC(=O)Nc2ccc(N(C)C)cc2)c(N2CCOCC2)n1
35 | 663 s | Cc1ccc(-c2ccc(N3CCCC(C(=O)NCC4CCCO4)C3)nn2)cc1C (stereo not given)
